One data set relates to BMMC cells. The data set is described as follows: C-13 toxicity test on BMMC cells (Annexin-V and Propidium Iodide). Format: cell-based. Particulars: Staurosporine, 3 hours. The protocol:
FIG. 10. Toxicity test of C-13 on BMMC cells. The BMMC cells were incubated at 37° C. in the presence of 2.5 μM or 5 μM of C-13, 0.25% DMF or Staurosporine. The percentages of live BMMC cells after 3 hours and after 5 days were detected by means of double Annexin-V and Propidium Iodide labelling. The viability of BMMC cells incubated in the presence of 2.5 μM or 5 μM of C-13 or 0.25% DMF was not affected to noteworthy degree after 3 hours (78%, 74% and 79% respectively) or five days (62, 56 and 57%, respectively). On the other hand, the viability of BMMC cells treated under the same conditions with Staurosporine was reduced to a level of 16% after only 3 hours.
• 1) Chemical products and antibodies. A chemical bank of 3000 molecules (a varied subset) was acquired from ChemBridge, Inc. (San Diego, Calif.). Stocks of solutions of small molecules were prepared at a rate of 10 mM in DMSO (dimethylsulphoxide), except for C-13 (methyl 2-{5-[(3-benzyl-4-oxo-2-thioxo-1,3-thiazolidin-5-ylidene)methyl]-2-furyl}benzoate, ChemBridge ID No. 6197026) prepared in DMF (dimethylformamide). Unless specified otherwise, all the reagents were supplied by Sigma. Dinitrophenyl (DNP) hapten was acquired from Calbiochem. Sepharose GammaBind G and all the secondary antibodies were supplied by GE Health Amersham Biosciences. The anti-Syk, anti-Lyn, anti-Btk, anti-PLC-γ1, anti-PLC-γ2, anti-LAT, anti-SLP-76, anti-p38, anti-JNK, anti-Vav, anti-Akt1 and 9E10 antibodies conjugated with HRP were acquired from Santa Cruz Biotechnology. The anti-phospho-p44/42 MAP Kinase, anti-p44/42 MAP Kinase, anti-phospho-p38, anti-phospho-JNK, anti-phospho-Akt1 antibodies were acquired from Cell Signaling. The anti-phospho-LAT and anti-phospho-PLC-γ1 antibodies were supplied by Biosource and the anti-phospho-SLP-76 antibodies by BD Pharmingen. The 4G10 anti-phosphotyrosine monoclonal antibody was acquired from Upstate Biotechnology. • 2) ADA method: ELISA type high-speed molecule screening test, based on antibody displacement (WO 2005106481). The recombinant fusion protein GST:Syk 6-242^8 comprising the residues 6 to 242 of murine Syk tyrosine kinase protein illustrated in FIG. 8B (SEQ ID No. 4) was immobilised on an ELISA plate at a final concentration of 10 μg ml^−1. For the screening of the chemical molecule bank, the small molecules, diluted in PBS at a final concentration of 10 μM were added to the wells for one hour at ambient temperature, before adding the fragment scFv G4G11 at a final concentration of 100 nM for an additional hour. The binding of G4G11 with Syk was assessed by adding the 9E10 monoclonal antibody conjugated with HRP detecting the amino acid sequence EQKLISEEDLN of human c-myc protein located at the C-terminal end of the scFv fragment. To generate Syk mutants, targeted mutagenesis was used on GST:Syk 6-242 protein and the binding of G4G11 with the mutants was assessed in the presence of 5 μM of C-13. • 3) Cells, culture conditions and functional tests. Anti-DNP 2682-I mouse monoclonal antibody was used as the culture supernatant of hybridomas containing 1 μg/ml of IgE. Femoral bone marrow cells were sampled and cultured in Opti-MEM medium (Gibco) supplemented with 10% foetal calf serum and 4% X63 transfectant supernatant secreting murine IL-3. RBL-2H3 (ATCC) leukaemic rat basophil cells were maintained in a single-layer culture in RPMI 1640 medium supplemented with 10% foetal calf serum (Gibco). […]

Data set [1] concerns the target T1, murine Syk tyrosine kinase protein (GST:Syk 6-242) (Mus musculus, UniProt P48025).
T1 construct: made in house
The experiment in a line: ADA method: displacement of the binding of scFv G4G11 with Syk (ELISA). Particulars: small molecules at 10 μM, scFv G4G11 100 nM; read-out: In vit. inhib.: mean inhibition % of the binding of scFv G4G11 with Syk in the ADA method. The procedure, abridged: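 GST:Syk 6-242 (murine) was immobilised at 10 μg ml^−1 and pre-incubated 1 h at ambient temperature with compounds at 10 μM final in PBS. scFv G4G11 was then added at 100 nM for 1 h. Bound scFv was detected via its C-terminal c-myc tag with HRP-9E10, and % inhibition was taken from signals with versus without compound.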

A further data set has as its system RBL-2H3 cells. The data set is described as follows: cells. The format is cell-based, rat. Particulars: Rattus norvegicus; RBL-2H3 cells; read-out: Degran. IC50: concentration inhibiting mast cell degranulation by 50%. Summed up: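 RBL-2H3 rat basophils sensitized 12-16 h with anti-DNP IgE (0.5 μg/ml), pretreated 90 min at 37° C with compound (DMF 0.25% vehicle), then stimulated 45 min with DNP-BSA (50 ng ml^−1) or ionomycin (1.5 μM). Degranulation read as β-hexosaminidase release.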

4 compounds from patent publication US9504676B2, “Molecules inhibiting a metabolic pathway involving the Syk protein tyrosine kinase and method for identifying said molecules” (CENTRE NATIONAL DE LA RECHERCHE SCIENTIFIQUE, priority 2008, dated 2016) can be followed below.

Molecules are shown by their SMILES.

For the compound `CN[C@@H]1C[C@H]2O[C@@](C)([C@@H]1OC)n1c3ccccc3c3c4c(c5c6ccccc6n2c5c31)C(=O)NC4` [Staurosporine, reference compound], in the data set on BMMC cells, the “percentage of live BMMC cells” value is reported as 16%. The inhibition is how much of the control response was suppressed. `CC(C)c1ccc(C2C(C(=O)c3ccc(F)cc3)=C(O)C(=O)N2CCN2CCOCC2)cc1` (stereo not shown) [Molecule 45, 4-(4-fluorobenzoyl)-3-hydroxy-5-(4-isopropylphenyl)-1-[2-(4-morpholinyl)ethyl]-1,5-dihydro-2H-pyrrol-2-one]: in data set [1], the inhibition at 10 µM amounted to 48.5%. In addition, the IC50 in the data set with RBL-2H3 cells is more than 10 µg/mL. For `COc1cc(NS(=O)(=O)c2ccc(NC(C)=O)cc2)c(OC)cc1NC(=O)c1ccccc1` [Molecule 21, N-[4-({[4-(acetylamino)phenyl]sulphonyl}amino)-2,5-dimethoxyphenyl] benzamide] the same measures were 58% and more than 10 µg/mL.

As for `CCN(CC)CCN1C(=O)C(O)=C(C(=O)c2ccc(C)cc2)C1c1cc(OC)ccc1OC` (stereo not shown) [Molecule 28, 1-[2-(diethylamino)ethyl]-5-(2,5-dimethoxyphenyl)-3-hydroxy-4-(4-methylbenzoyl)-1,5-dihydro-2H-pyrrol-2-one], the inhibition at 10 µM in data set [1] is 54%. Besides, the IC50 in the data set with RBL-2H3 cells was more than 10 µg/mL.
